Laboratory results taken from patent US9695155B2, “Herbicidal substituted pyrimidinyloxy benzene compounds” (E. I. DU PONT DE NEMOURS AND COMPANY, priority 2013, dated 2017).

How the values were obtained:
corn = assay: Test C preemergence; format: in vivo, Zea mays
Summary of the method: (§1)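 Greenhouse herbicide screen. Pre: seeded loam/sand, sprayed at planting. Post: 1–4 leaf plants (2–18 cm) in peat-based mix. Formulation: solvent mixture + surfactant, non-phytotoxic. Readout: visual % control vs untreated, 13–15 d; dash = not tested.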

morningglory = assay: Test C preemergence; format: in vivo, Ipomoea coccinea
Summary of the method: as §1

wild poinsettia [1] = assay: Test E preemergence; format: in vivo, Euphorbia heterophylla; conditions: for Poinsettia, Wild plant response rating: scale 0 to 100 (0 no effect, 100 complete control)
Text: (§2) Seeds of plant species selected from corn (Zea mays), soybean (Glycine max), velvetleaf (Abutilon theophrasti), lambsquarters (Chenopodium album), wild poinsettia (Euphorbia heterophylla), palmer pigweed (Amaranthus palmeri), waterhemp (common waterhemp, Amaranthus rudis), surinam grass (Brachiaria decumbens), large (Lg) crabgrass (Digitaria sanguinalis), Brazilian crabgrass (Digitaria horizontalis), fall panicum (Panicum dichotomiflorum), giant foxtail (Setaria faberii), green foxtail (Setaria viridis), goosegrass (Eleusine indica), johnsongrass (Sorghum halepense), ragweed (common ragweed, Ambrosia elatior), barnyardgrass (Echinochloa crus-galli), sandbur (southern sandbur, Cenchrus echinatus), arrowleaf sida (Sida rhombifolia), Italian ryegrass (Lolium multiflorum), dayflower (Virginia (VA) dayflower, Commelina virginica), field bindweed (Convolvulus arvensis), morningglory (Ipomoea coccinea), nightshade (eastern black nightshade, Solanum ptycanthum), kochia (Kochia scoparia), yellow nutsedge (Cyperus esculentus), cocklebur (common cocklebur, Xanthium strumarium), smartweed (ladysthumb smartweed, and hairy beggarticks (Bidens pilosa), were planted into a silt loam soil and treated preemergence with test chemicals formulated in a non-phytotoxic solvent mixture which included a surfactant.
(§3) At the same time, plants from these crop and weed species and also horseweed (Canada horseweed, Conyza canadensis), waterhemp_RES1, (ALS & Triazine resistant common waterhemp, Amaranthus rudis), and waterhemp_RES2, (ALS & HPPD resistant common waterhemp, Amaranthus rudis) were planted in pots containing Redi-Earth® planting medium (Scotts Company, 14111 Scottslawn Road, Marysville, Ohio 43041) comprising spaghnum peat moss, vermiculite, wetting agent and starter nutrients were treated with postemergence applications of test chemicals formulated in the same manner. Plants ranged in height from 2 to 18 cm for postemergence treatments (1- to 4-leaf stage). Treated plants and controls were maintained in a greenhouse for 14 to 21 days, after which time all species were compared to controls and visually evaluated. Plant response ratings, summarized in Table E, are based on a scale of 0 to 100 where 0 is no effect and 100 is complete control. A dash (-) response means no test result.

johnsongrass = assay: Test E preemergence; format: in vivo, Sorghum halepense; conditions: for Johnsongrass plant response rating: scale 0 to 100 (0 no effect, 100 complete control)
Text: as §2, §3

Italian ryegrass = assay: Test A postemergence; format: in vivo, Lolium multiflorum; conditions: 0 to 100 scale where 0 is no effect and 100 is complete control
Summary of the method: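 Pre- and postemergence greenhouse screen. Soil: loam + sand. Spray carrier: solvent mixture, non-phytotoxic, with surfactant. Post timing at 1–2 leaves, height 2–10 cm. Readout: visual injury on a 0–100 scale roughly 10 days after application, untreated plants as reference.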

wild poinsettia [2] = assay: Test E postemergence; format: in vivo, Euphorbia heterophylla; conditions: Euphorbia heterophylla, post-emergence, read-out: Plant response rating, Poinsettia, Wild
Text: as §2, §3

dayflower = assay: Test E postemergence; format: in vivo, Commelina virginica; conditions: Commelina virginica, post-emergence, read-out: Plant response rating, Dayflower, VA
Text: as §2, §3

field bindweed = assay: Test E postemergence; format: in vivo, Convolvulus arvensis; conditions: Convolvulus arvensis, post-emergence, read-out: Plant response rating, Field Bindweed
Text: as §2, §3

[3] = 16 g ai/ha, preemergence, scale 0 to 100 (0 no effect, 100 complete control)
[4] = 62 g ai/ha, preemergence, scale 0 (no effect) to 100 (complete control)
[5] = 125 g ai/ha, preemergence, scale 0 (no effect) to 100 (complete control)
[6] = Preemergence, 31 g ai/ha, scale 0 to 100, 0 no effect, 100 complete control
[7] = 125 g ai/ha, scale 0 to 100, 0 no effect, 100 complete control
[8] = 31 g ai/ha, preemergence, scale 0 to 100 (0 no effect, 100 complete control)
[9] = Preemergence, 62 g ai/ha, scale 0 to 100, 0 no effect, 100 complete control
[10] = 8 g ai/ha, scale 0 to 100, 0 is no effect, 100 is complete control
[11] = 250 g ai/ha, scale 0 to 100, 0 no effect, 100 complete control
[12] = Postemergence, 31 g ai/ha, scale 0 to 100
[13] = Postemergence, 62 g ai/ha, scale 0 to 100
[14] = Postemergence, 125 g ai/ha, scale 0 to 100
[15] = postemergence, 16 g ai/ha, scale 0 to 100, 0 no effect, 100 complete control

Row | Structure (SMILES) | Corn plant response rating (corn; [3]) | Corn plant response rating (corn; [4]) | Corn plant response rating (corn; [5]) | Plant response rating, Corn (corn; [6]) | Morningglory plant response rating (morningglory; [3]) | Morningglory plant response rating (morningglory; [4]) | Morningglory plant response rating (morningglory; [5]) | Poinsettia, Wild plant response rating (wild poinsettia [1]; 31 g ai/ha) | Poinsettia, Wild plant response rating (wild poinsettia [1]; 62 g ai/ha) | Plant response rating, Poinsettia, Wild (wild poinsettia [1]; [7]) | Johnsongrass plant response rating (johnsongrass; 31 g ai/ha) | Johnsongrass plant response rating (johnsongrass; 62 g ai/ha) | Plant response rating, Johnsongrass (johnsongrass; [7]) | Plant response rating, Corn (corn; [9]) | Plant response rating, Morningglory (morningglory; [9]) | Plant response rating, Poinsettia, Wild (wild poinsettia [1]; [10]) | Plant response rating, Johnsongrass (johnsongrass; [10]) | further results
1 | Fc1cnc(Oc2cccc(C(F)F)c2-n2cc(C(F)(F)F)cn2)nc1 [Compound 164] | 0 | 5 | 45 | 5 | 10 | 85 | 100 | 0 | 5 | 30 | 0 | 10 | 70 | – | – | – | – | –
2 | Cc1cnc(Oc2cccc(C#N)c2-n2cc(C#N)cn2)nc1 [Compound 90] | 0 | 10 | 45 | 0 | 0 | 55 | 100 | 35 | 70 | 75 | 0 | 0 | 15 | – | – | – | – | Plant response rating, Ryegrass, Italian (Italian ryegrass; 125 g ai/ha): 30; Plant response rating, Ryegrass, Italian (Italian ryegrass; 500 g ai/ha): 80; Plant response rating, Morningglory (morningglory; [6]): 20; Poinsettia, Wild plant response rating (wild poinsettia [1]; 16 g ai/ha): 10; Johnsongrass plant response rating (johnsongrass; 16 g ai/ha): 0
3 | NC(=S)c1cccc(Oc2ncc(Cl)cn2)c1-n1cc(Cl)cn1 [Compound 292] | 0 | – | 45 | – | 25 | – | 70 | 5 | 35 | 60 | 15 | 20 | 35 | 10 | 35 | 0 | 0 | Corn plant response rating (corn; [8]): 5; Morningglory plant response rating (morningglory; [8]): 30
4 | Cc1cnc(Oc2cccc(C#N)c2-n2cc(C(F)(F)F)cn2)nc1 [Compound 180] | 5 | – | 65 | – | 35 | – | 100 | 10 | 15 | 65 | 0 | 50 | 75 | 30 | 100 | – | – | Plant response rating, Poinsettia, Wild (wild poinsettia [1]; [11]): 98; Plant response rating, Johnsongrass (johnsongrass; [11]): 80
5 | N#Cc1cccc(Oc2ncc(F)cn2)c1-n1cc(C(F)(F)F)cn1 [Compound 79, 3-[(5-fluoro-2-pyrimidinyl)oxy]-2-[4-(trifluoromethyl)-1H-pyrazol-1-yl]benzonitrile] | – | – | – | – | – | – | – | – | – | – | – | – | – | – | – | – | – | plant injury at 125 g/ha (corn; Zea mays, pre-emergence, 125 g ai/ha, preemergence, scale 0 (no effect) to 100 (complete control), read-out: Corn plant response rating): 80%; plant injury at 250 g/ha (corn; Zea mays, pre-emergence, 250 g ai/ha, preemergence, scale 0 (no effect) to 100 (complete control), read-out: Corn plant response rating): 95%; Corn plant response rating (crop injury, 0 = no effect, 100 = complete kill) at 31 g/ha (corn; Zea mays, pre-emergence, Preemergence, 31 g ai/ha, scale 0 to 100, 0 no effect, 100 complete control): 40%; pest or weed control at 62 g/ha (morningglory; Ipomoea, pre-emergence, 62 g ai/ha, preemergence, scale 0 (no effect) to 100 (complete control), read-out: Morningglory plant response rating): 100%; pest or weed control at 125 g/ha (morningglory; Ipomoea, pre-emergence, 125 g ai/ha, preemergence, scale 0 (no effect) to 100 (complete control), read-out: Morningglory plant response rating): 100%; pest or weed control at 250 g/ha (morningglory; Ipomoea, pre-emergence, 250 g ai/ha, preemergence, scale 0 (no effect) to 100 (complete control), read-out: Morningglory plant response rating): 100%; pest or weed control at 31 g/ha (morningglory; Ipomoea, pre-emergence, Preemergence, 31 g ai/ha, scale 0 to 100, 0 no effect, 100 complete control, read-out: Plant response rating, Morningglory): 95%; pest or weed control at 31 g/ha (wild poinsettia [2]; [12]): 40%; pest or weed control at 62 g/ha (wild poinsettia [2]; [13]): 50%; pest or weed control at 125 g/ha (wild poinsettia [2]; [14]): 60%; pest or weed control at 16 g/ha (wild poinsettia [2]; [15]): 40%; pest or weed control at 31 g/ha (dayflower; [12]): 30%; pest or weed control at 62 g/ha (dayflower; [13]): 50%; pest or weed control at 125 g/ha (dayflower; [14]): 50%; pest or weed control at 16 g/ha (dayflower; [15]): 10%; pest or weed control at 31 g/ha (field bindweed; [12]): 70%; pest or weed control at 62 g/ha (field bindweed; [13]): 80%; pest or weed control at 125 g/ha (field bindweed; [14]): 80%; pest or weed control at 16 g/ha (field bindweed; [15]): 60%
6 | FC(F)c1cccc(Oc2ncc(Cl)cn2)c1-n1cc(C(F)(F)F)cn1 [Compound 170] | 0 | 15 | 40 | 5 | 0 | 40 | 100 | 20 | 25 | 40 | 15 | 25 | 70 | – | – | 0 | 15 | –
